Laboratory results taken from publication PMC9313812, “The Pseudo‐Natural Product Rhonin Targets RHOGDI” (Angewandte Chemie (International Ed. in English), 2022).
Like-named read-outs stand apart in the source and are kept apart here.

How the values were obtained:
C3H/10T1/2 cells = experiment: Osteoblast differentiation assay (ODA): purmorphamine-induced osteogenesis, alkaline phosphatase luminescence readout; assay type: cell-based, mouse; parameters: key to Osteogenesis IC50: Compounds are marked inactive when no inhibition was observed at the highest test concentration of 30 µM; conditions: for Osteogenesis IC50 / IC50: 1.5 µM purmorphamine, 96 h, n=3; for Inhibition of Hh-/purmorphamine-induced osteogenesis (in words): C3H/10T1/2 cells
Procedure: Supplementary Table S7. Inhibition of osteogenesis assay. C3H10T1/2 cells were incubated with 1.5 µM purmorphamine and compounds or DMSO as a control for 96 h. The activity of alkaline phosphatase was assessed by means of a luminescence readout. Values for cells, which were treated with DMSO and purmorphamine, were set to 100% and data were measured in […]
concentration of 30 µM. All data are mean values of three independent experiments (n = 3) ± […]
Compound Osteogenesis IC50
(1 picture or pasted object on this page, not shown here)
NIH/3T3 cells were obtained from DSMZ, Germany (DSMZ ACC 59) and were cultured in DMEM (high glucose) supplemented with 10% heat-inactivated FCS, 2 mM L -glutamine and 1 mM sodium pyruvate. Shh -LIGHT2 cells (NIH/3T3 cells stably transfected with a Gli-responsive firefly luciferase reporter plasmid and a pRL-TK constituitive Renilla luciferase expression vector)[4] were cultured in the same culturing medium supplemented with 400 μg ml −1 G418 and 150 μg ml −1 Zeocin as selecting agents. The murine osteoblasts C3H/10T1/2 (ATCC CCL-226) were obtained from ATCC, USA and were cultured in DMEM (high glucose) supplemented with 10% heat-inactivated FCS, 6 mM L -glutamine, 1 mM sodium pyruvate. HEK293T cells (ATCC, England) were grown in DMEM containing 10% FBS, 100 U ml −1 penicillin and 0.1 mg ml −1 streptomycin. All cell lines were maintained at 37 °C and 5% CO 2 in a humidified atmosphere. All the cell lines were regularly assayed for mycoplasma and were confirmed to be mycoplasma-free. Transfection of DNA constructs and siRNAs were performed using FuGENE HD (Promega), Lipofectamine® LTX (Invitrogen) and DharmaFECT™ (GE Healthcare) transfection reagent according to the manufacturer’s […]
Osteoblast differentiation assay
The osteoblast differentiation assay was performed by the Compound Management and Screening Center (COMAS) in Dortmund, Germany. C3H/10T1/2 cells were seeded (800 per well) in white 384-well plates or (6000 per well) in 96-well plates. After incubation for 16 h, compounds or DMSO were added to the cells using the acoustic nanoliter dispenser ECHO 520 (Labcyte) and osteogenesis was induced with 1.5 µM purmorphamine. Plates were incubated for 96 h at 37 °C and 5% CO2. Alkaline phosphatase activity was measured by replacing the medium with osteogenesis-lysis buffer (lysis buffer: 100 mM Tris pH 9.5, 250 mM NaCl, 25 mM MgCl2, 1% Triton X-100, sterile filtered) containing 1:100 chemiluminescent substrate CDP-Star® (Promega, 384-well plates: 35 µL, 96-well plates: 50 µL) for one hour in the dark at 25 °C. In 384-well plates, the luminescence was monitored using the Paradigm plate reader (Molecular Devices, USA), whereas Spark plate reader (Tecan, Austria) was used to measure luminescence in 96-well plates. Dose-response analyses were performed for all hit compounds […]
using a three-fold dilution series starting from a concentration of 30 μM. Half-maximal inhibitory concentrations (IC50) were calculated using the Quattro software suite (Quattro Research, Planegg, Germany) or GraphPad Prism 7 (GraphPad, USA).
The effect of test compounds on the viability of C3H/10T1/2 cells was determined by CellTiter-Glo Luminescence cell viability assay (Promega). Cells were treated as described for the osteogenesis assay prior to addition of the CellTiter-Glo® reagent according to manufacturer’s protocol. Compounds causing at least a 50% reduction in the osteogenesis assay and retaining cell viability of at least 80% were considered as hits. Dose-response analyses were performed for all hit compounds using a three-fold dilution series starting from a concentration of 30 μM. Half-maximal inhibitory concentrations (IC50) were calculated using the Quattro software suite (Quattro Research GmbH). […]

Shh-LIGHT2 cells = experiment: GLI-dependent reporter gene assay (RGA); assay type: cell-based; conditions: Shh Light2; Figure 2a; mean of three independent experiments
Procedure: using a three-fold dilution series starting from a concentration of 30 μM. Half-maximal inhibitory concentrations (IC50) were calculated using the Quattro software suite (Quattro Research, Planegg, Germany) or GraphPad Prism 7 (GraphPad, USA). […]
GLI-dependent reporter gene assay
Shh-LIGHT2 cells were seeded (2.5×10^4 per well) in 96-well plates. After incubation for 16 h, medium was replaced by low serum-containing medium (0.5% FCS) supplemented with 1.5 μM purmorphamine and various concentrations of the compounds or DMSO as a control and cells were incubated for 48 h. […]

[1] = Table S7, mean ± SD, highest test concentration 30 µM
[2] = Mus musculus, C3H 10T1/2, Table S13, Rac, Cdc42 and ROCK inhibitors, read-out: Osteogenesis IC50 ± SD
[3] = Table S13, Rac, Cdc42 and ROCK inhibitors, read-out: Osteogenesis IC50 ± SD
[4] = Mus musculus, C3H 10T1/2, Table S7, mean ± SD, highest test concentration 30 µM, read-out: Osteogenesis IC50

**Q.** For `COC(=O)c1ccc(C23NC(C(=O)OC)(C4C(=O)N(C)C(=O)C42)C2C(=O)N(c4ccccc4)C(=O)C23)cc1` (stereo not shown) [5c], which “Osteogenesis IC50” value (C3H/10T1/2 cells; [1]) is on record?
**A.** Its value is “inactive”.

**Q.** Which “Osteogenesis IC50” value (C3H/10T1/2 cells; [1]) does the source give for `COC(=O)C12NC(c3ccc(Br)cc3)(C3C(=O)N(c4ccccc4)C(=O)C31)C1C(=O)N(C3CCCCC3)C(=O)C12` (stereo not shown) [5f] here?
**A.** Its value is “inactive”.

**Q.** `COC(=O)C12NC(c3ccc(C)cc3)(C3C(=O)N(C)C(=O)C31)C1C(=O)N(c3ccccc3)C(=O)C12` (stereo not shown) [5b] was tested. Which “Osteogenesis IC50” value (C3H/10T1/2 cells; [1]) did it give?
**A.** The value was “inactive”.

**Q.** `COC(=O)[C@@]1([C@H](CC(=O)c2ccc(Br)cc2)c2ccc(C(=O)NCCOCCOCCNC(=O)OC(C)(C)C)cc2)N=C(c2ccc(Br)cc2)[C@H]2C(=O)N(C)C(=O)[C@H]21` [S10b] was tested. Which “Osteogenesis IC50” value (C3H/10T1/2 cells; [1]) did it give?
**A.** The value was “inactive”.

**Q.** `COc1cc(C2=NC(C)=C(C(=O)Nc3ccc4[nH]ncc4c3)C(c3ccc(Cl)cc3F)N2)ccn1` (stereo not shown) [GSK534911A, reference compound] was tested. Which IC50 (C3H/10T1/2 cells; [2]) did it give?
**A.** Its IC50 is 1550 ± 500 nM.

**Q.** How did the “Osteogenesis IC50” value (C3H/10T1/2 cells; [1]) turn out when `COC(=O)C=C(C(=O)OC)C1(C(=O)OC)N=C(c2ccc(Br)cc2)C2C(=O)N(C)C(=O)C21` (stereo not shown) [7h] was run?
**A.** Its value is “inactive”.

**Q.** `O=c1cc(CN2CCOCC2)occ1OCCCCCSc1ccnc2cc(C(F)(F)F)ccc12` [EHT 1864, reference compound] was tested. Which IC50 (C3H/10T1/2 cells; [3]) did it give?
**A.** Its IC50 is greater than 2000 nM.

**Q.** How did the “Osteogenesis IC50” value (C3H/10T1/2 cells; [1]) turn out when `COC(=O)C1(C2CC(=O)N(c3ccccc3)C2=O)N=C(c2ccc(C(F)(F)F)cc2)C2C(=O)N(C)C(=O)C21` (stereo not shown) [6b] was run?
**A.** Its value is “inactive”.

**Q.** How did the IC50 (Shh-LIGHT2 cells) turn out when `COC(=O)C1(CCC(C)=O)N=C(c2ccc(Br)cc2)C2C(=O)N(C)C(=O)C21` (stereo not shown) [7c] was run?
**A.** Its IC50 is 8000 nM.

**Q.** What about the “Inhibition of Hh-/purmorphamine-induced osteogenesis (in words)” value (C3H/10T1/2 cells) of the same molecule?
**A.** Its value is “active”.

**Q.** And the IC50 (C3H/10T1/2 cells; [4])?
**A.** The IC50 was 6200 ± 1300 nM.

**Q.** What does the source list for `COC(=O)C1(CCC(C)=O)N=C(c2ccc(Br)cc2)C2C(=O)N(c3ccccc3)C(=O)C21` (stereo not shown) [7f]?
**A.** Inhibition of Hh-/purmorphamine-induced osteogenesis (in words) (C3H/10T1/2 cells): activity was lost; Osteogenesis IC50 (C3H/10T1/2 cells; [1]): inactive

**Q.** `CCCN1C(=O)C2C(C1=O)C1(c3ccc(Br)cc3)NC2(C(=O)OC)C2C(=O)N(c3ccccc3)C(=O)C21` (stereo not shown) [5e] was tested. Which “Osteogenesis IC50” value (C3H/10T1/2 cells; [1]) did it give?
**A.** Its value is “inactive”.

**Q.** Which “Osteogenesis IC50” value (C3H/10T1/2 cells; [1]) does the source give for `COC(=O)C1(C2CC(=O)N(c3ccccc3)C2=O)N=C(c2cccc(OC)c2)C2C(=O)N(C)C(=O)C21` (stereo not shown) [6e] here?
**A.** The value was “inactive”.

**Q.** `COC(=O)C1(C2CC(=O)N(c3ccccc3)C2=O)N=C(c2ccc(C(C)(C)C)cc2)C2C(=O)N(C)C(=O)C21` (stereo not shown) [6d] was tested. Which “Osteogenesis IC50” value (C3H/10T1/2 cells; [1]) did it give?
**A.** Its value is “inactive”.

**Q.** With `COC(=O)C1(C2CC(=O)N(c3ccccc3)C2=O)N=C(c2ccc(Br)cc2)C2C(=O)N(C)C(=O)C21` (stereo not shown) [6a] as the molecule, how does the “Osteogenesis IC50” value (C3H/10T1/2 cells; [1]) read?
**A.** Its value is “inactive”.

**Q.** For `COC(=O)C1(C=CC(=O)c2ccccc2)N=C(c2ccc(Br)cc2)C2C(=O)N(C)C(=O)C21` (stereo not shown) [7g], which IC50 (Shh-LIGHT2 cells) is on record?
**A.** The IC50 was 6150 nM.

**Q.** And the IC50 (C3H/10T1/2 cells; [4])?
**A.** Its IC50 is 3130 ± 200 nM.

**Q.** With `Cc1cc(C)nc(NS(=O)(=O)c2ccc(NC(=S)NC(=O)COc3ccc(Br)cc3Cl)cc2)n1` [ZCL278, reference compound] as the molecule, how does the “Osteogenesis, activity at 2 µM” value (C3H/10T1/2 cells; Table S13, 2 µM, DMSO + purmorphamine = 100%) read?
**A.** The value was 75%.

**Q.** What does the source list for `COC(=O)C1(C(CC(=O)c2ccc(Br)cc2)c2ccccc2)N=C(c2ccc(Br)cc2)C2C(=O)N(C)C(=O)C21` (stereo not shown) [7b]?
**A.** Inhibition of Hh-/purmorphamine-induced osteogenesis (in words) (C3H/10T1/2 cells): abolished activity; Osteogenesis IC50 (C3H/10T1/2 cells; [1]): inactive

**Q.** `CCn1c2ccccc2c2cc(Nc3ccnc(NCCCN4CCOCC4)n3)ccc21` [EHop-016, reference compound] was tested. Which IC50 (C3H/10T1/2 cells; [3]) did it give?
**A.** Its IC50 is 881 ± 80 nM.

**Q.** How did the “Osteogenesis IC50” value (C3H/10T1/2 cells; [1]) turn out when `COC(=O)C12NC(c3ccc(Br)cc3)(C3C(=O)N(C)C(=O)C31)C1C(=O)N(c3ccccc3)C(=O)C12` (stereo not shown) [5a] was run?
**A.** Its value is “inactive”.

**Q.** `CN(C)CCOc1cc(-c2cn[nH]c2)ccc1NC(=O)C1COc2ccccc2O1` (stereo not shown) [SR-3677, reference compound] was tested. Which IC50 (C3H/10T1/2 cells; [2]) did it give?
**A.** Its IC50 is 1720 ± 100 nM.

**Q.** `COC(=O)C1(CCC(=O)C=Cc2ccccc2)N=C(c2ccc(Br)cc2)C2C(=O)N(C)C(=O)C21` (stereo not shown) [7e] was tested. Which IC50 (Shh-LIGHT2 cells) did it give?
**A.** The IC50 was 4240 nM.

**Q.** What about the IC50 (C3H/10T1/2 cells; [4]) of the same molecule?
**A.** Its IC50 is 2810 ± 400 nM.

**Q.** Which IC50 (C3H/10T1/2 cells; [3]) does the source give for `Cc1cncc2cccc(S(=O)(=O)N3CCCNC[C@@H]3C)c12` [H-1152, reference compound] here?
**A.** The IC50 was 2870 nM.

**Q.** Which “Osteogenesis IC50” value (C3H/10T1/2 cells; [1]) does the source give for `COC(=O)C1(C2CC(=O)N(c3ccccc3)C2=O)N=C(c2ccc(F)cc2)C2C(=O)N(C)C(=O)C21` (stereo not shown) [6c] here?
**A.** The value was “inactive”.

**Q.** Which “Osteogenesis IC50” value (C3H/10T1/2 cells; [1]) does the source give for `COC(=O)C=C(C(=O)OC)C1(C(=O)OC)N=C(c2ccc(Br)cc2)C2C(=O)N(c3ccccc3)C(=O)C21` (stereo not shown) [7i] here?
**A.** The value was “inactive”.

**Q.** With `COC(=O)C12NC(c3ccc(Cl)cc3)(C3C(=O)N(C)C(=O)C31)C1C(=O)N(c3ccccc3)C(=O)C12` (stereo not shown) [5d] as the molecule, how does the “Osteogenesis IC50” value (C3H/10T1/2 cells; [1]) read?
**A.** The value was “inactive”.
